We go through eight molecules from publication PMC8895762 (BMC Complementary Medicine and Therapies, 2022).

Read-outs that look alike come from different tables or passages of the source.

Series [1] has as its system phosphorylated NF-κB p65 in LPS-stimulated RAW 264.7 macrophages. The experiment in a line: NF-κB activation by Western blotting. In kind it is cell-based, Murine. Particulars: 20 μM, LPS 1 μg/mL, 24 h, compared to the LPS group, p < 0.01. How it is done: RAW 264.7 macrophages were seeded and pretreated with respective concentrations of 20 μM of each compound (1, 4–6, 15 and 17) for 1 h, followed by the addition of LPS (1 μg/mL) for 24 h. Subsequently, the total protein was extracted by resuspending the cells in RIPA lysis buffer. In addition, protein concentrations were measured by a Bicinchoninic acid (BCA) assay kit. Proteins were separated using SDS-PAGE gels and then electroplated onto a PVDF membrane, which was blocked with 5% skim milk for 1 h at room temperature in Tris-buffered saline-Tween (TBST). Membranes were washed three times with TBST and then incubated overnight at 4 °C in diluted (1:1000) primary antibody solution (anti-NF-κB p65 or anti-phosphorylated-NF-κB p65). After washing three times with TBST, the membranes were incubated with a 1:5000 dilution of HRP-conjugated secondary antibody for 1 h at room temperature. The immunoreactive bands were determined by densitometry and quantified using a Bio-Rad auto-developer (Bio-Rad, California, USA). All results are expressed as relative ratios to the reference protein GAPDH [16, 17].
(In general: In western blotting, separated proteins are transferred to a membrane and probed.)

Series [2] is described as follows: CCK-8 cell viability assay. Format: cell-based, Murine. Particulars: mouse. As to the method:
(§1) Murine RAW 264.7 macrophages were purchased from the American Tissue Culture Collection (Manassas, USA). These cells were incubated in DMEM supplemented with 10% FBS, 100 U/mL penicillin and 100 U/mL streptomycin in humidified 5% carbon dioxide (CO2) at 37 °C [16, 17].
(§2) The effects of 19 constituents on the viability of RAW 264.7 macrophages were assessed by CCK-8 assay. Prior to treatment, RAW 264.7 macrophages (5 × 10^3 cells/well) were seeded into 96-well plates and incubated for 24 h. All cultured cells were treated with or without 19 compounds at a concentration of 40 μM at 37 °C for 24 h. After incubation, 10 μL of CCK-8 solution was added to each well and incubated at 37 °C. After 2 h, the absorbance of each well was measured at 450 nm in a microplate reader. Cell viability was calculated using the following formular:
(§3) Cell viability (%) = Asample/Acontrol × 100, where Asample and Acontrol are the absorbance of cells treated with the compound and untreated cells, respectively. Moreover, the latter is expressed as 100% cell viability.

Series [3] has as its system IL-1β in LPS-stimulated RAW 264.7 macrophages. The experiment in a line: IL-1β secretion by ELISA. In kind it is cell-based, Murine. Particulars: 20 μM, LPS 1 μg/mL, 24 h, compared to the LPS group, p < 0.01. As to the method: (§4) The logarithmic growth phase of RAW 264.7 macrophages was inoculated in 96-well plates at a density of 5 × 10^3 cells/well. After 24 h of incubation, these cells were pretreated with respective concentrations of 20 μM of each compound (1, 4–6, 15 and 17) for 1 h, followed by the addition of LPS (1 μg/mL) for 24 h. Finally, 50 μL of each supernatant solution was taken to measure the concentrations of TNF-α, PGE2, IL-1β and IL-6, using the corresponding commercially available murine ELISA kits in accordance with the manufacturer’s instructions.
(ELISA stands for enzyme-linked immunosorbent assay.)

Series [4] concerns TNF-α in LPS-stimulated RAW 264.7 macrophages. Nature of the series: TNF-α secretion by ELISA. Particulars: 20 μM, LPS 1 μg/mL, 24 h, compared to the LPS group, p < 0.01. In kind it is cell-based, Murine. How it is done: as §4
For series [5], the system named is NO production in LPS-stimulated RAW 264.7 macrophages. Nature of the series: NO production by the Griess method. In kind it is cell-based, Murine. The conditions noted are these: LPS 1 μg/mL; for IC50: RAW 264.7 macrophages, mean ± SD, n = 3; for inhibition at 40 µM: RAW264.7, read-out: NO inhibition rate; for inhibition at 40 µM / NO inhibition rate: 40 μM. How it is done:
as §1
The effects of 19 constituents on NO production in LPS-induced RAW 264.7 macrophages were determined using the Griess method. Prior to treatment, RAW 264.7 macrophages (5 × 10^3 cells/well) were seeded into 96-well plates and incubated for 24 h. […] After 1 h, cells were incubated with or without LPS at a concentration of 1 μg/mL at 37 °C for 24 h. After incubation, 50 μL of each supernatant solution was collected and mixed with equal volumes of Griess Reagent I and Griess Reagent II, respectively. The absorbance (A) was measured at 540 nm after 10 min of incubation at room temperature. The standard concentration of sodium nitrite was used to calculate the nitrite concentration. Moreover, the NO inhibition rate (%) = (ALPS − ALPS + sample)/(ALPS − Acontrol) × 100, where ALPS, ALPS + sample, and Acontrol are the absorbance of LPS model group, LPS + sample group, and DMEM group, respectively.
(In general: Griess reagent forms a coloured azo dye with nitrite.)

The subject of series [6] is PGE2 in LPS-stimulated RAW 264.7 macrophages. Nature of the series: PGE2 secretion by ELISA. Format: cell-based, Murine. Particulars: 20 μM, LPS 1 μg/mL, 24 h, compared to the LPS group, p < 0.01. How it is done: as §4
Series [7] has as its system IL-6 in LPS-stimulated RAW 264.7 macrophages. The experiment in a line: IL-6 secretion by ELISA. Format: cell-based, Murine. The conditions noted are these: 20 μM, LPS 1 μg/mL, 24 h, compared to the LPS group, p < 0.01. How it is done:
as §4

For series [8], the system named is inflammatory cytokines in cells. Also noted: method as in PMID 20221843, PMID 12105943, PMID 18448292, PMID 25821492. Particulars: cited from earlier work.
Series [9] deals with BV2 microglia. Also noted: method as in PMID 22552813. The conditions noted are these: 40, 60 and 80 μM; cited from earlier work.
For series [10], the system named is RAW 264.7 macrophages. The experiment in a line: CCK-8 cell viability assay. Format: cell-based, Murine. Particulars: 40 μM, 24 h, RAW 264.7 macrophages, mean ± SD, n = 3. How it is done: as §1, §2, §3
The mark [11] stands for this setting: 40 μM, 24 h, RAW 264.7 macrophages, mean ± SD, n = 3, read-out: Cell viability (%).

For `O=c1c(O)c(-c2ccc(O)cc2)oc2cc(O)cc(O)c12` [Compound 1, kaempferol], in series [1], the “Phosphorylation of NF-κB p65 levels” value is on record as “significantly lower”. For the same molecule, the viability at 24 h, 40 µM in series [2] amounted to 92.4 ± 3.96%. For the same molecule, the “Level of IL-1β” value in [3] is on record as “significantly reduced”. For the same molecule, the “Level of TNF-α” value in series [4] was “significantly reduced”. The IC50 in [5] (24 h) is 18.4 ± 2.67 µM; in series [5] (Mus musculus, RAW264.7, 24 h), not above 20 µM. The inhibition at 40 µM in series [5] (Mus musculus, 24 h) was more than 50%. In series [6], the “Level of PGE2” value is recorded as “significantly reduced”. For the same molecule, the “Level of IL-6” value in [7] is listed as “significantly reduced”. Moreover, the “Anti-inflammatory effects by suppressing the secretion of inflammatory cytokines” value (“Anti-inflammatory effects” for short) in series [8] is given as “anti-inflammatory effects”.
`O=C1c2c(O)cc(O)cc2O[C@H](c2ccc(O)cc2)[C@H]1O` [Compound 15, dihydrokaempferol]: in series [1], the “Phosphorylation of NF-κB p65 levels” value was “significantly lower”. In series [2], this molecule had a viability at 24 h, 40 µM of 91.3 ± 5.38%. Moreover, the “Level of IL-1β” value in [3] is “significantly reduced”. Moreover, the “Level of TNF-α” value in series [4] is on record as “significantly reduced”. Further, the IC50 is 18.3 ± 1.71 µM in series [5] (24 h) and not above 20 µM in series [5] (Mus musculus, RAW264.7, 24 h). Further, in [5] (Mus musculus, 24 h), the inhibition at 40 µM is more than 50%. The “Level of PGE2” value in [6] is given as “significantly reduced”. In series [7], the “Level of IL-6” value is recorded as “significantly reduced”. Further, the “Anti-inflammatory effects” value in [8] is listed as “anti-inflammatory effects”.
Regarding `O=c1c(O[C@@H]2O[C@H](CO)[C@@H](O)[C@H](O)[C@H]2O)c(-c2ccc(O)cc2)oc2cc(O)cc(O)c12` [Compound 2, astragalin], in series [2] (setting [11]), the viability at 24 h, 40 µM was determined as 95 ± 1.86%. The molecule also registered an IC50 in series [5] (Mus musculus, RAW264.7, 24 h) of more than 40 µM. Moreover, the inhibition at 40 µM in series [5] (Mus musculus, 24 h) is not above 50%. Besides, in series [8], the “Anti-inflammatory effects” value is “anti-inflammatory effects”.
`O=C1C[C@@H](c2ccc(O)cc2)Oc2cc(O)cc(O)c21` [Compound 14, naringenin]: the “Anti-inflammatory effect via inhibition of NF-κB and MAPKs pathways” value in [9] is given as “possessed anti-inflammatory effect”. Further, in series [2] (setting [11]), the viability at 24 h, 40 µM came to 93 ± 6.19%. For the same molecule, the IC50 in series [5] (Mus musculus, RAW264.7, 24 h) came out at 38.5 ± 2.78 µM. The inhibition at 40 µM in series [5] (Mus musculus, 24 h) was more than 50%.
For `O=c1c(O[C@@H]2O[C@H](CO)[C@@H](O)[C@H](O)[C@H]2O)c(-c2ccc(O)cc2)oc2cc(O[C@@H]3O[C@H](CO)[C@@H](O)[C@H](O)[C@H]3O)cc(O)c12` [Compound 4, kaempferol-3,7-di-O-β-D-glucopyranoside], in series [2], the viability at 24 h, 40 µM was 93.4 ± 6.34%. Also, half-maximal inhibition in [5] (Mus musculus, RAW264.7, 24 h) (IC50) required 12.2 ± 1.18 µM. In series [5] (Mus musculus, 24 h), the inhibition at 40 µM was more than 50%.
For `O=c1c(O)c(-c2ccc(O)cc2)oc2cc(O[C@@H]3O[C@H](CO)[C@@H](O)[C@H](O)[C@H]3O)cc(O)c12` [Compound 3, kaempferol-7-O-β-D-glucopyranoside] the same measures were 91.1 ± 5.28%, more than 40 µM and not above 50%.
As for `OC[C@H]1O[C@@H](OCCc2ccccc2)[C@H](O)[C@@H](O)[C@@H]1O` [Compound 17, phenethyl-O-β-D-glucopyranoside], the “Phosphorylation of NF-κB p65 levels” value in series [1] was “significantly lower”. Further, in series [10], the “Cell viability (%)” value is on record as 92.21 ± 3.48%. The “Level of IL-1β” value in [3] is reported as “significantly reduced”. Moreover, the “Level of TNF-α” value in [4] is listed as “significantly reduced”. In addition, in series [5] (24 h), the NO inhibition rate entry is “greater than 50%” and the IC50 worked out at 19.9 ± 2.01 µM. The “Level of PGE2” value in series [6] is “significantly reduced”. The “Level of IL-6” value in series [7] is listed as “significantly reduced”.
As to kaempferol-3-O-rutinoside [Compound 11], in series [5] (24 h), the NO inhibition rate result is on record as “greater than 50%” and the concentration for half-maximal inhibition (IC50) is 31.2 ± 1.09 µM. In addition, the “Anti-inflammatory effects” value in series [8] is “anti-inflammatory effects”.

The viability is a read-out of living cells in per cent, often relative to untreated cells. By IC50 is commonly meant the concentration needed to halve the response being measured. A word on the inhibition: it is the percentage by which the read-out fell short of the control.
